Measurements from patent US11014891B2, “Reduction-triggered antibacterial sideromycins” (priority 2013, dated 2021).

Experiments:
Experiment in all cases: agar diffusion antibacterial susceptibility assay
M. luteus ATCC 10240 = type: cell-based, Micrococcus luteus; settings: ciprofloxacin in H2O, concentration per footnote mark b
Source text: (§1) Representative Gram-positive strains included Bacillus subtilis, Staphylococcus aureus and Micrococcus luteus. The Gram-negative strains studied included Pseudomonas aeruginosa (a wild type K799/wt and a penetration mutant strain K799/61), Escherichia coli, and Acinetobacter baumannii.

E. coli X580 = type: cell-based, Escherichia coli; settings: ciprofloxacin in H2O, concentration per footnote mark d
Source text: as §1

A. baumannii ATCC 17961 = type: cell-based, Acinetobacter baumannii; settings: ciprofloxacin in H2O, concentration per footnote mark b; 100 μM 2,2′-bipyridine
Source text: The siderophore-ciprofloxacin conjugates 13 and 23 were first evaluated for their ability to inhibit the growth of bacteria using the agar well diffusion test. Representative Gram-positive strains included Bacillus subtilis, Staphylococcus aureus and Micrococcus luteus. The Gram-negative strains studied included Pseudomonas aeruginosa (a wild type K799/wt and a penetration mutant strain K799/61), Escherichia coli, and Acinetobacter baumannii.

S. aureus SG 511 = type: cell-based, Staphylococcus aureus; settings: ciprofloxacin in H2O, concentration per footnote mark b
Source text: as §1

B. subtilis ATCC 6633 = type: cell-based, Bacillus subtilis; settings: ciprofloxacin in H2O, concentration per footnote mark c
Source text: as §1

SMILES: O=C(O)c1cn(C2CC2)c2cc(N3CCNCC3)c(F)cc2c1=O [Ciprofloxacin, ciprofloxacin]
- Diameter of growth inhibition zones (M. luteus ATCC 10240): 12P^b
- Diameter of growth inhibition zones (E. coli X580): 31^d mm
- Diameter of growth inhibition zones (A. baumannii ATCC 17961): 15p^b
- Diameter of growth inhibition zones (S. aureus SG 511): 28^b mm
- Diameter of growth inhibition zones (B. subtilis ATCC 6633): 28^c mm
